# Experimental data taken from US20200370087A1, “METHOD FOR DETERMINING MICROBIAL SUSCEPTIBILITY TO ANTIBIOTIC AGENTS” (Ascilion AB, priority 2017, published 2020).
# Experiments:
# E. coli ATCC 25922 [1] = experiment: Qualitative glucose consumption test, directly from positive BC-bottles (Example 2, Table 7); format: cell-based; settings: E. coli ATCC 25922 from positive BC-bottle, antibiotic 256 μg/mL
# [2] = tested on: Escherichia coli (ATCC 25922); experiment: Glucose consumption susceptibility test, blood culture diluted in MHB with glucose (Example 1); format: cell-based; set-up: glucose concentration, t = 0 / glucose concentration, t = 60 / glucose concentration, t = 120 / glucose concentration, t = 180 / dC/dT (rate of change in glucose concentration) / glucose concentration, t = 240: unit not given here; settings: for F = the rate of change in glucose concentration in relation to the reference / dC/dT (rate of change in glucose concentration) / glucose concentration, t = 0 / glucose concentration, t = 60 / glucose concentration, t = 120 / glucose concentration, t = 180 / glucose concentration, t = 240: E. coli; for glucose concentration, t = 0: 0 minutes; for glucose concentration, t = 60: 60 minutes; for glucose concentration, t = 120: 120 minutes; for glucose concentration, t = 180: 180 minutes; for glucose concentration, t = 240: 240 minutes
# Experimental: Strains of Escherichia coli (ATCC 25922), Enterococcus faecalis (ATCC 29212) and Staphylococcus aureus (ATCC 29213) were inoculated in blood culture bottles (SVA, Uppsala, Sweden) and cultivated according to the manufacturer's instructions until positive.
# Medium from each blood culture bottle was diluted 1:100 with cation adjusted Mueller-Hinton broth (SVA, Uppsala, Sweden) supplemented with glucose to a concentration of 1.0 mg/mL.
# Glucose concentrations were measured at 0, 60, 120, 180, and 240 minutes using a WaveSense Jazz glucometer (AgaMatrix, Inc., Salem, N.H., USA) with accompanying test strips.
# Susceptibility scores corresponding to MIC values were calculated as described above. A 80% threshold was applied, i.e. the lowest concentration of antibiotic that entailed a rate of change in glucose concentration that was equal to or less than 80% of the reference was selected as the Minimal Inhibitory Concentration. The rate of change was calculated between the measurements at 60 and 180 minutes.
# E. coli ATCC 25922 [3] = experiment: Qualitative glucose consumption test, bacteria from plated cultures (Example 2, Table 6); format: cell-based; settings: E. coli ATCC 25922 from plated culture, antibiotic 256 μg/mL
# Experimental: (§1) If the susceptibility score is a qualitative susceptibility score classifying the microorganism as “susceptible”, or “non-susceptible” to an antibiotic agent the answer could be given in as little as 1 hour. Bacteria from plated cultures were suspended in cation adjusted Mueller-Hinton broth (SVA, Uppsala, Sweden) supplemented with glucose. Consequently, the concentration of microorgansims was typically two orders of magnitude higher as compared to Example 1. […] The tested microorganisms was one strain of E. faecium, two strains of E. coli and one S. aureus.
# E. faecium [4] = experiment: as above; format: cell-based; settings: E. faecium from plated culture, antibiotic 256 μg/mL
# Experimental: as §1
# E. coli 17 = experiment: as above; format: cell-based; settings: E. coli 17 from plated culture, antibiotic 256 μg/mL
# Experimental: as §1
# [5] = tested on: Escherichia coli ATCC 25922; settings: E.coli, cited from earlier work
# E. faecium [6] = experiment: Qualitative glucose consumption test, directly from positive BC-bottles (Example 2, Table 7); format: cell-based; settings: E. faecium from positive BC-bottle, antibiotic 256 μg/mL
# Experimental: With slightly lower microbe concentrations e.g. directly from positive BC-bottles (^˜10^9 CFU/ml) the results are shown at least within 2 hours, where E. coli ATCC 25922 is classified as susceptible and E. faecium is non-susceptible.
# [7] = tested on: Enterococcus faecalis ATCC 29212; settings: E.faecalis, cited from earlier work
# S. aureus = experiment: Qualitative glucose consumption test, bacteria from plated cultures (Example 2, Table 6); format: cell-based; settings: S. aureus from plated culture, antibiotic 256 μg/mL
# Experimental: If the susceptibility score is a qualitative susceptibility score classifying the microorganism as “susceptible”, or “non-susceptible” to an antibiotic agent the answer could be given in as little as 1 hour.
# Bacteria from plated cultures were suspended in cation adjusted Mueller-Hinton broth (SVA, Uppsala, Sweden) supplemented with glucose. Consequently, the concentration of microorgansims was typically two orders of magnitude higher as compared to Example 1. […] The tested microorganisms was one strain of E. faecium, two strains of E. coli and one S. aureus.
# [8] = range obtained by EUCAST from ISO 20776-1: 2006
# [9] = reference value, Mueller-Hinton agar, incubation 18±2 h, N/A = not susceptible
substance,measurement,setting,value
gentamicin,"glucose concentration, t = 0",E. coli ATCC 25922 [1]; t = 0,145
same,"glucose concentration, t = 45",E. coli ATCC 25922 [1]; t = 45,155
same,"glucose concentration, t = 60",E. coli ATCC 25922 [1]; t = 60,151
same,"glucose concentration, t = 90",E. coli ATCC 25922 [1]; t = 90,140
same,"glucose concentration, t = 105",E. coli ATCC 25922 [1]; t = 105,135
same,qualitative susceptibility score,E. coli ATCC 25922 [1]; within 2 hours,susceptible
same,F = the rate of change in glucose concentration in relation to the reference,[2]; antibiotic 0.25 μg/mL,139%
same,dC/dT (rate of change in glucose concentration),[2]; antibiotic 0.25 μg/mL,86
same,"glucose concentration, t = 0",[2]; antibiotic 0.25 μg/mL,149
same,"glucose concentration, t = 60",[2]; antibiotic 0.25 μg/mL,152
same,"glucose concentration, t = 120",[2]; antibiotic 0.25 μg/mL,144
same,"glucose concentration, t = 180",[2]; antibiotic 0.25 μg/mL,58
same,F = the rate of change in glucose concentration in relation to the reference,[2]; antibiotic 0.5 μg/mL,121%
same,dC/dT (rate of change in glucose concentration),[2]; antibiotic 0.5 μg/mL,75
same,"glucose concentration, t = 0",[2]; antibiotic 0.5 μg/mL,144
same,"glucose concentration, t = 60",[2]; antibiotic 0.5 μg/mL,147
same,"glucose concentration, t = 120",[2]; antibiotic 0.5 μg/mL,147
same,"glucose concentration, t = 180",[2]; antibiotic 0.5 μg/mL,72
same,F = the rate of change in glucose concentration in relation to the reference,[2]; antibiotic 1 μg/mL,77%
same,dC/dT (rate of change in glucose concentration),[2]; antibiotic 1 μg/mL,48
same,"glucose concentration, t = 0",[2]; antibiotic 1 μg/mL,144
same,"glucose concentration, t = 60",[2]; antibiotic 1 μg/mL,155
same,"glucose concentration, t = 120",[2]; antibiotic 1 μg/mL,148
same,"glucose concentration, t = 180",[2]; antibiotic 1 μg/mL,111
same,"glucose concentration, t = 240",[2]; antibiotic 1 μg/mL,53
same,F = the rate of change in glucose concentration in relation to the reference,[2]; antibiotic 2 μg/mL,9%
same,dC/dT (rate of change in glucose concentration),[2]; antibiotic 2 μg/mL,6
same,"glucose concentration, t = 60",[2]; antibiotic 2 μg/mL,161
same,"glucose concentration, t = 120",[2]; antibiotic 2 μg/mL,151
same,"glucose concentration, t = 180",[2]; antibiotic 2 μg/mL,143
same,"glucose concentration, t = 240",[2]; antibiotic 2 μg/mL,140
same,F = the rate of change in glucose concentration in relation to the reference,[2]; antibiotic 4 μg/mL,7%
same,dC/dT (rate of change in glucose concentration),[2]; antibiotic 4 μg/mL,5
same,"glucose concentration, t = 0",[2]; antibiotic 4 μg/mL,147
same,"glucose concentration, t = 60",[2]; antibiotic 4 μg/mL,163
same,"glucose concentration, t = 120",[2]; antibiotic 4 μg/mL,157
same,"glucose concentration, t = 180",[2]; antibiotic 4 μg/mL,148
same,"glucose concentration, t = 240",[2]; antibiotic 4 μg/mL,148
same,F = the rate of change in glucose concentration in relation to the reference,[2]; antibiotic 8 μg/mL,7%
same,dC/dT (rate of change in glucose concentration),[2]; antibiotic 8 μg/mL,5
same,"glucose concentration, t = 0",[2]; antibiotic 8 μg/mL,144
same,"glucose concentration, t = 60",[2]; antibiotic 8 μg/mL,156
same,"glucose concentration, t = 120",[2]; antibiotic 8 μg/mL,153
same,"glucose concentration, t = 180",[2]; antibiotic 8 μg/mL,150
same,"glucose concentration, t = 240",[2]; antibiotic 8 μg/mL,144
same,F = the rate of change in glucose concentration in relation to the reference,[2]; antibiotic 16 μg/mL,1%
same,dC/dT (rate of change in glucose concentration),[2]; antibiotic 16 μg/mL,1
same,"glucose concentration, t = 0",[2]; antibiotic 16 μg/mL,143
same,"glucose concentration, t = 60",[2]; antibiotic 16 μg/mL,155
same,"glucose concentration, t = 120",[2]; antibiotic 16 μg/mL,152
same,"glucose concentration, t = 180",[2]; antibiotic 16 μg/mL,149
same,"glucose concentration, t = 240",[2]; antibiotic 16 μg/mL,153
same,F = the rate of change in glucose concentration in relation to the reference,[2]; antibiotic 32 μg/mL,6%
same,dC/dT (rate of change in glucose concentration),[2]; antibiotic 32 μg/mL,4
same,"glucose concentration, t = 0",[2]; antibiotic 32 μg/mL,148
same,"glucose concentration, t = 60",[2]; antibiotic 32 μg/mL,158
same,"glucose concentration, t = 120",[2]; antibiotic 32 μg/mL,155
same,"glucose concentration, t = 180",[2]; antibiotic 32 μg/mL,150
same,"glucose concentration, t = 240",[2]; antibiotic 32 μg/mL,147
same,"MIC, Measured","[2]; E.coli, 80% threshold of reference rate of change, 60 to 180 minutes, N/A = not susceptible, no MIC value can be calculated",1 µg/mL
same,qualitative susceptibility score,E. coli ATCC 25922 [3],susceptible
same,"glucose concentration, t = 15",E. coli ATCC 25922 [3]; t = 15,156
same,"glucose concentration, t = 30",E. coli ATCC 25922 [3]; t = 30,155
same,"glucose concentration, t = 45",E. coli ATCC 25922 [3]; t = 45,136
same,qualitative susceptibility score,E. faecium [4],non-susceptible
same,"glucose concentration, t = 0",E. faecium [4]; t = 0,79
same,"glucose concentration, t = 15",E. faecium [4]; t = 15,47
same,qualitative susceptibility score,E. coli 17,susceptible
same,"glucose concentration, t = 15",E. coli 17; t = 15,131
same,"glucose concentration, t = 30",E. coli 17; t = 30,126
same,"glucose concentration, t = 45",E. coli 17; t = 45,123
same,"MIC, EUCAST, range in parentheses",[5]; [8],(0.25-1) ug/mL
same,"MIC, EUCAST",[5]; [9],0.5 µg/mL
same,"glucose concentration, t = 0",E. faecium [6]; t = 0,144
same,"glucose concentration, t = 45",E. faecium [6]; t = 45,105
same,"glucose concentration, t = 60",E. faecium [6]; t = 60,77
same,"glucose concentration, t = 75",E. faecium [6]; t = 75,47
same,qualitative susceptibility score,E. faecium [6]; within 2 hours,non-susceptible
same,"MIC, EUCAST, range in parentheses",[7]; [8],(4-16) ug/mL
same,"MIC, EUCAST",[7]; [9],8 µg/mL
same,qualitative susceptibility score,S. aureus,susceptible
same,"glucose concentration, t = 15",S. aureus; t = 15,137
same,"glucose concentration, t = 30",S. aureus; t = 30,139
same,"glucose concentration, t = 45",S. aureus; t = 45,131
